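1) Cells in 96-well plates. 2) Compound, 48 h, 5 concentrations. 3) Linear interpolation between surrounding doses. 4) Unreached endpoint = highest concentration. The concentration for full growth arrest is given as TGI.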
Legend:
Assay in all cases: inhibition of tumour cell growth, NCI panel, 48 h
NCI-H226 lung = test system: NCI-H226 lung
PC-3 prostate = test system: PC-3 prostate
KM12 colon = test system: KM12 colon
SF-295 CNS = test system: SF-295 CNS
ACHN renal = test system: ACHN renal
U251 CNS = test system: U251 CNS
MCF7 breast = test system: MCF7 breast
M14 melanoma = test system: M14 melanoma
UO-31 renal = test system: UO-31 renal
MDA-N = test system: MDA-N
NCI/ADR-RES ovarian = test system: NCI/ADR-RES ovarian
SN12C renal = test system: SN12C renal
DU-145 prostate = test system: DU-145 prostate
HOP-92 NSCLC = test system: HOP-92 NSCLC
UACC-62 melanoma = test system: UACC-62 melanoma
NCI-H460 lung = test system: NCI-H460 lung
OVCAR-3 ovarian = test system: OVCAR-3 ovarian
UACC-257 melanoma = test system: UACC-257 melanoma
SK-MEL-28 melanoma = test system: SK-MEL-28 melanoma
NCI-H522 lung = test system: NCI-H522 lung
LOX IMVI melanoma = test system: LOX IMVI melanoma
SK-OV-3 ovarian = test system: SK-OV-3 ovarian
SK-MEL-5 melanoma = test system: SK-MEL-5 melanoma
CAKI-1 renal = test system: CAKI-1 renal
SF-268 CNS = test system: SF-268 CNS
MDA-MB-435 = test system: MDA-MB-435
786-0 renal = test system: 786-0 renal
SNB-75 CNS = test system: SNB-75 CNS
T-47D breast = test system: T-47D breast
HS 578T breast = test system: HS 578T breast
HOP-62 NSCLC = test system: HOP-62 NSCLC
TK-10 renal = test system: TK-10 renal
HCC-2998 colon = test system: HCC-2998 colon
SNB-19 CNS = test system: SNB-19 CNS
IGROV1 ovarian = test system: IGROV1 ovarian
MOLT-4 leukemia = test system: MOLT-4 leukemia
OVCAR-4 ovarian = test system: OVCAR-4 ovarian
K-562 leukemia = test system: K-562 leukemia
RPMI-8226 leukemia = test system: RPMI-8226 leukemia
BT-549 breast = test system: BT-549 breast
NCI-H23 lung = test system: NCI-H23 lung
OVCAR-8 ovarian = test system: OVCAR-8 ovarian
HCT-15 colon = test system: HCT-15 colon
EKVX NSCLC = test system: EKVX NSCLC
A498 renal = test system: A498 renal
CCRF-CEM leukemia = test system: CCRF-CEM leukemia
OVCAR-5 ovarian = test system: OVCAR-5 ovarian
HCT-116 colon = test system: HCT-116 colon
A549 NSCLC = test system: A549 NSCLC
SK-MEL-2 melanoma = test system: SK-MEL-2 melanoma
HT29 colon = test system: HT29 colon
COLO 205 colon = test system: COLO 205 colon
MDA-MB-231 breast = test system: MDA-MB-231 breast

## COc1ccc2c(c1)c1c(n2CCN(C)C)-c2cccc(OC)c2CC1
NCI-H226 lung
  TGI: 17.1 µM
PC-3 prostate
  TGI: 24.2 µM
KM12 colon
  TGI: 25.4 µM
SF-295 CNS
  TGI: 35.9 µM
ACHN renal
  TGI: 38.8 µM
U251 CNS
  TGI: 32.6 µM
MCF7 breast
  TGI: 29.5 µM
M14 melanoma
  TGI: 24.9 µM
UO-31 renal
  TGI: 35.4 µM
MDA-N
  TGI: 26.1 µM
NCI/ADR-RES ovarian
  TGI: 47.3 µM
SN12C renal
  TGI: 35.5 µM
DU-145 prostate
  TGI: 39.5 µM
HOP-92 NSCLC
  TGI: 44.2 µM
UACC-62 melanoma
  TGI: 34.6 µM
NCI-H460 lung
  TGI: 41.5 µM
OVCAR-3 ovarian
  TGI: 30.9 µM
UACC-257 melanoma
  TGI: 37.7 µM
SK-MEL-28 melanoma
  TGI: 32 µM
NCI-H522 lung
  TGI: 15.6 µM
LOX IMVI melanoma
  TGI: 37.4 µM
SK-OV-3 ovarian
  TGI: 35 µM
SK-MEL-5 melanoma
  TGI: 35 µM
CAKI-1 renal
  TGI: 29.1 µM
SF-268 CNS
  TGI: 38.9 µM
MDA-MB-435
  TGI: 28 µM
786-0 renal
  TGI: > 100 µM
SNB-75 CNS
  TGI: 18.9 µM
T-47D breast
  TGI: 27.7 µM
HS 578T breast
  TGI: 33.5 µM
HOP-62 NSCLC
  TGI: 27.6 µM
TK-10 renal
  TGI: 41.5 µM
HCC-2998 colon
  TGI: 34.9 µM
SNB-19 CNS
  TGI: 46.8 µM
IGROV1 ovarian
  TGI: 39 µM
MOLT-4 leukemia
  TGI: 26.8 µM
OVCAR-4 ovarian
  TGI: 46.9 µM
K-562 leukemia
  TGI: 16.4 µM
RPMI-8226 leukemia
  TGI: 18.2 µM
BT-549 breast
  TGI: 40.5 µM
NCI-H23 lung
  TGI: 36.9 µM
OVCAR-8 ovarian
  TGI: 42.4 µM
HCT-15 colon
  TGI: 45.9 µM
EKVX NSCLC
  TGI: 35 µM
A498 renal
  TGI: 44.9 µM
CCRF-CEM leukemia
  TGI: 15.1 µM
OVCAR-5 ovarian
  TGI: 29.8 µM
HCT-116 colon
  TGI: 50.3 µM
A549 NSCLC
  TGI: 40.9 µM
SK-MEL-2 melanoma
  TGI: 30.2 µM
HT29 colon
  TGI: 14 µM
COLO 205 colon
  TGI: 27.7 µM
MDA-MB-231 breast
  TGI: 35.2 µM
